Experimental data taken from patent US20160220581A1, “CHROMIUM COMPOSITIONS FOR THE TREATMENT OR PREVENTION OF DIABETIC RETINOPATHY” (JDS Therapeutics, LLC, priority 2015, published 2016).

How the values were obtained:
Assay type in all cases: in vivo, rat
diabetic rats = test: CrHis supplementation in STZ-induced diabetic rats: body weight and blood/serum biochemical parameters
Method: (§1) Diabetes was induced with streptozotocin [(STZ), 55 mg/kg] by intraperitoneal injection in male Long-Evans rats. Three weeks after STZ injection, rats were divided into four groups, namely, untreated normal controls, normal rats receiving CrHis (110 μg/kg/day); untreated diabetics and diabetics treated with CrHis (110 μg/kg/day) orally for 12 weeks.
(§2) Twenty eight Long Evans rats per experiment, aged 8 weeks with 250±20 g of body weight were used in these experiments. All the animals were kept and maintained under standard guidelines. The animals were kept and maintained at 22±2° C., humidity of 55%±5% and 12/12-hour light/dark cycle. The rats were weighed every week and at the end of the study. Blood sample was collected from the tail vein of each rat for the measurement of biochemical efficacy and safety markers.
(§3) The CrHis was given in the water and administered at a concentration of 110 μg/kg bw/d) to get 9.16 μg elemental Cr (kg body/d), which is an equivalent dose of 614 μg Cr for a 70-kg adult human based on previous work. The Cr concentration of the water provided the control group was negligible (<1 μg/L). The water provided the Cr-supplemented group was initially prepared as a solution containing 3000 μg CrHis/L of water. The […] water was diluted to achieve the target Cr intake per group on the basis of measured water intake. To induce experimental diabetes, STZ was dissolved in citrate buffer (pH 4.5) and injected once intraperitoneally at a dose of 55 mg/kg to the remainder of the animals. A control group was given citrate buffer via intraperitoneal injection.
(§4) Fourteen rats were treated with STZ (55 mg/kg body weight) through intraperitoneal injection. All rats were then fasted for 16 hour prior to treatment, but they had access to drinking water. The animals were divided into 4 groups: group I (Control) rats received citrate buffer intraperitoneally and isotonic saline, orally; group II (Control+CrHis) rats were administered chromium histidinate orally (110 μg/kg body weight) daily for a period of […]; group III (Diabetic) rats received single injection of STZ (55 mg/kg body weight) intraperitoneally and were also given isotonic saline, orally for the duration of the study; group IV (Diabetic+CrHis) diabetic rats were administered chromium orally as chromium histidinate (110 μg/kg body weight) daily for a period of 12 weeks after the induction of diabetes.
(§5) Body weight and blood glucose concentrations were monitored weekly. Blood was collected from the tail vein of the rats. Blood glucose was determined by one touch glucometer (ACCU-Check Active, Roche Diagnostics, Mannheim, Germany) after the injection for 72 h. Before STZ injection, glucose concentrations of study rats and controls were measured and compared.
(§6) Blood samples were centrifuged at 3000×g for 10 min and sera were separated. Serum glucose concentrations were measured by using ACCU-Chek Active (Roche Diagnostics, Basel, Switzerland). Serum insulin levels were measured with the Rat Insulin Kit (Linco Research, St Charles, Mo.) by enzyme-linked immunosorbent assay (ELISA, Elx-800, BioTek Instruments, Winooski, Vt.). Serum concentrations of total cholesterol (TC) were measured by diagnostic kits (Sigma Diagnostics, St Louis, Mo.). Blood glycosylated haemoglobin (HbAlc) was also measured by routine kit (Alfabiotech, Milano, Italy) using the autoanalyzer.
Data were analyzed statistically using one-way ANOVA. In the analyses for the biomarker(s), the repeated statement was added in the general linear model. The group differences were attained by the Fisher's multiple comparison test [Statistical Package for the Social Sciences (SPSS)]. A P value of less than 0.05 was considered significant.

retina of diabetic rats = test: Histologic examination of retina in diabetic rats
Method: as §1
After the eye extirpation, tissue (retina) of each rat was also examined grossly. The tissue was removed for histologic study, washed with normal saline, and immersion-fixed in 10% buffered formalin immediately upon removal. They were gradually dehydrated, embedded in paraffin, cut into 5-μm sections, and stained with hematoxylin and eosin for histologic examination according to standard procedures.
General procedures were conducted as described above. Retinas were highly organized in the normal (control) rats, with intact layers. The retinas were disorganized in the diabetic rats with impaired layers. […] Similar experiments are conducted with other chromium species such as chromium nicotinate and chromium picolinate.

normal rats = test: CrHis supplementation in normal rats: body weight and blood/serum biochemical parameters; conditions: CrHis group, CrHis 110 μg/kg/day orally
Method: as §1, §2, §3, §4, §5, §6
Data were analyzed statistically using one-way ANOVA. […]

retinal microangiopathy = test: Retinal microangiopathy (Example 8); conditions: versus other chromium complexes at equivalent total dosages of chromium
Method: General procedures are conducted as described above. Retinal microangiopathy is characterized using standard ophthalomogic techniques.

[1] = tested on: retina malondialdehyde (MDA); test: Retina MDA content by HPLC in diabetic rats; conditions: diabetic rats treated with CrHis, FIG. 1 Panel D
Method: as §1
General procedures were conducted as described above. After rats were sacrificed, both eyes were enucleated and frozen at −80° C. for the measurements of MDA, GLUT 1, GLUT3 and insulin. The retina MDA content was measured by high performance liquid chromatography (HPLC, Shimadzu, Tokyo, Japan) using a Shimadzu UV-vis SPD-10 AVP detector and a CTO-10 AS VP column in a mobile phase consisting of 30 mM KH2PO4 and methanol (82.5+17.5, v/v; pH 3.6) at a flow rate of 1.2 ml/min. Column effluents were monitored at 250 nm and the volume was 20 μl. The retina homogenate (10%, w/v) was prepared in 10 mM phosphate buffer (pH 7.4), centrifuged at 13,000×g for 10 min at 4° C., and the supernatant was collected and stored at −80° C. for MDA analysis.

[2] = tested on: glucose transporter 1 (GLUT 1); test: Western blot of retina GLUT 1 expression in diabetic rats; conditions: diabetic rats treated with CrHis, P<0.05, FIG. 1 Panel A
Method: as §1
(§7) After rats were sacrificed, both eyes were either (1) enucleated and frozen at −80° C. for the measurements of the target biomarker(s) and/or other analysis or (2) are examined immediately post-sacrifice for morphological changes. […]
(§8) Equal amounts of protein (50 μg) were electrophoresed and subsequently transferred onto a nitrocellulosemembrane (Schleicher and Schuell Inc., Keene, N.H., USA). […] Bands were analyzed densitometrically using an image analysis system (Image J; National Institute of Health, Bethesda, USA).
(§9) General procedures were conducted as described above. […] The retina MDA content was measured by high performance liquid chromatography (HPLC, Shimadzu, Tokyo, Japan) using a Shimadzu UV-vis SPD-10 AVP detector and a CTO-10 AS VP column in a mobile phase consisting of 30 mM KH2PO4 and methanol (82.5+17.5, v/v; pH 3.6) at a flow rate of 1.2 ml/min. Column effluents were monitored at 250 nm and the volume was 20 μl. […]
(§10) Data are means of quadruplets of assays and expressed as relative to control (%). […]

[3] = tested on: retinal lipoprotein membrane content; test: Loss of retinal lipoprotein membrane content (Example 6); conditions: versus other chromium complexes at equivalent total dosages of chromium
Method: (§11) General procedures are conducted as described above. Retinal lipids are extracted from the retinal cellular lysate and characterized by liquid chromatography-mass spectrometry.

retinal hard exudates = test: Retinal hard exudates (Example 9); conditions: versus other chromium complexes at equivalent total dosages of chromium
Method: General procedures are conducted as described above. Retinal hard exudates are extracted from the retinal cellular lysate and characterized by liquid chromatography-mass spectrometry.

retinal lipid oxidation = test: Retinal lipid oxidation by LC-MS of retinal lysate (Example 3); conditions: versus other chromium complexes at equivalent total dosages of chromium
Method: as §11

[4] = tested on: retinal capillary basement membrane; test: Retinal capillary basement membrane thickening (Example 7); conditions: versus other chromium complexes at equivalent total dosages of chromium
Method: General procedures are conducted as described above. Retinal capillary basement membrane thickening is characterized by physical examination of the eye using standard techniques.

[5] = tested on: hemoglobin glycation and/or retinal protein glycation; test: Hemoglobin glycation and retinal protein glycation (Example 5); conditions: versus other chromium complexes at equivalent total dosages of chromium
Method: General procedures are conducted as described above. […]. Retinal proteins are extracted from the retinal cellular lysate and characterized by liquid chromatography-mass spectrometry and/or Western Blotting.

retina insulin = test: Western blot of retina insulin expression in diabetic rats; conditions: diabetic rats treated with CrHis, P<0.05, FIG. 1 Panel C
Method: as §1, §7, §8, §9, §10

retinal photoreceptors = test: Free radical oxidation of retinal photoreceptors (Example 4); conditions: versus other chromium complexes at equivalent total dosages of chromium
Method: as §11

[6] = tested on: glucose transporter 3 (GLUT3); test: Western blot of retina GLUT3 expression in diabetic rats; conditions: diabetic rats treated with CrHis, P<0.05, FIG. 1 Panel B
Method: as §1, §7, §8, §9, §10

diabetic retinopathy = test: Co-administration of chromium histidinate with insulin or metformin in diabetic retinopathy (Example 10)
Method: General procedures are conducted as described above. Co-administration of chromium histidinate with insulin or metformin is performed. Retinal biomarker(s) are extracted from the retinal cellular lysate and characterized by liquid chromatography-mass spectrometry.

[7] = STZ + CrHis group, diabetic rats, CrHis 110 μg/kg/day orally for 12 weeks
[8] = diabetic retinopathy rats treated with CrHis

Substance: chromium histidinate [CrHis]
- Body weight, change in words (diabetic rats; CrHis-treated diabetic rats compared to the untreated diabetic group, P<0.001): significantly increased
- Body weight (diabetic rats; [7]): 250 g
- Glucose (diabetic rats; [7]): 290 mg/dL
- Glycosylated hemoglobin (diabetic rats; [7]): 0.45 mg/g
- Insulin (diabetic rats; [7]): 25.0 μU/mL
- Total cholesterol (diabetic rats; [7]): 218 mg/dL
- Blood glucose level, change in words (diabetic rats; [8]): significant increases
- HbAlc level, change in words (diabetic rats; [8]): significant increases
- Insulin level, change in words (diabetic rats; [8]): significant increases
- Retina organization (histology) (retina of diabetic rats; CrHis group compared to the diabetes group): surprisingly improved
- Reducing the physiological effects of diabetic retinopathy (retina of diabetic rats; versus other chromium complexes at equivalent total dosages of chromium): more efficacious
- Body weight (normal rats): 340 g
- Glucose (normal rats): 100 mg/dL
- Glycosylated hemoglobin (normal rats): 0.20 mg/g
- Insulin (normal rats): 50.3 μU/mL
- Total cholesterol (normal rats): 80 mg/dL
- Decreasing microangiopathy (retinal microangiopathy): more efficacious
- MDA expression in retina [1]: statistically significant reduction
- Expression of GLUT1 in the retina [2]: reversed these changes to near control levels
- Decreasing the loss of retinal lipoprotein membrane content [3]: more efficacious
- Reducing hard exudates (retinal hard exudates): more efficacious
- Reducing the retinal lipid oxidation (retinal lipid oxidation): more efficacious
- Preventing retinal capillary basement membrane from thickening [4]: more efficacious
- Reducing hemoglobin glycation and/or retinal protein glycation [5]: more efficacious
- Expression of insulin in the retina (retina insulin): reversed these changes to near control levels
- Reducing the free radical oxidation of retinal photoreceptors (retinal photoreceptors): more efficacious
- Expression of GLUT3 in the retina [6]: reversed these changes to near control levels
- Effect in treating diabetic retinopathy (diabetic retinopathy): synergistic effect
